Test system: HCV replicon, genotype-1a variant with glutamine 30 changed to glutamate in the NS5A protein
Assay: microbe, parasite or virus in culture
Type: cell-based, HCV genotype 1a
Details: HCV replicon genotype 1a Q30E (Q→E) variant; test compound titrated with an NS5A-targeting compound (BMS-790052 fixed at 200 nM); ranking of synergist activity
How it was run: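 Synergy was assessed by combining several fixed amounts of an NS5A-targeting compound with a titration of the second compound of interest.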

Structure (SMILES)	Fold-Synergistic 1a (Q30E)
CC(C)N(C(=O)C(=O)N[C@H](c1nc(-c2ccc(-c3ccc(-c4c[nH]c([C@@H](NC(=O)C(=O)N(C(C)C)C5CC5)C5(C)CC5)n4)cc3)cc2)c[nH]1)C1(C)CC1)C1CC1 [Compound W-58]	>100 fold
CC1([C@H](NC(=O)C(=O)N2CCC(C(F)(F)F)CC2)c2nc(-c3ccc(-c4ccc(-c5c[nH]c([C@@H](NC(=O)C(=O)N6CCC(C(F)(F)F)CC6)C6(C)CC6)n5)cc4)cc3)c[nH]2)CC1 [Compound W-59]	>100 fold
CC(C)(C)[C@H](NC(=O)C(=O)N1CCC(C(F)(F)F)CC1)c1nc(-c2ccc(-c3ccc(-c4c[nH]c([C@@H](NC(=O)C(=O)N5CCC(C(F)(F)F)CC5)C(C)(C)C)n4)cc3)cc2)c[nH]1 [Compound W-60]	>100 fold
C[C@@H]1CN(C(=O)C(=O)N[C@H](c2nc(-c3ccc(-c4ccc(-c5c[nH]c([C@@H](NC(=O)C(=O)N6C[C@@H](C)O[C@@H](C)C6)C6(C)CC6)n5)cc4)cc3)c[nH]2)C2(C)CC2)C[C@H](C)O1 [Compound W-61]	>100 fold
CC1([C@H](NC(=O)C2(N3CCC(F)(F)CC3)COC2)c2nc(-c3ccc(-c4ccc(-c5c[nH]c([C@@H](NC(=O)C6(N7CCC(F)(F)CC7)COC6)C6(C)CC6)n5)cc4)cc3)c[nH]2)CC1 [Compound W-62]	>100 fold
CC(C)(C)[C@H](NC(=O)C1(N2CCC(F)(F)CC2)COC1)c1nc(-c2ccc(-c3ccc(-c4c[nH]c([C@@H](NC(=O)C5(N6CCC(F)(F)CC6)COC5)C(C)(C)C)n4)cc3)cc2)c[nH]1 [Compound W-63]	>100 fold
CC(C)[C@H](NC(=O)C1(N2CCC(F)(F)CC2)COC1)c1nc(-c2ccc(-c3ccc(-c4c[nH]c([C@@H](NC(=O)C5(N6CCC(F)(F)CC6)COC5)C(C)C)n4)cc3)cc2)c[nH]1 [Compound W-64]	>100 fold
CC(C)[C@H](NC(=O)C(=O)N(CC(F)(F)F)C(C)C)c1nc(-c2ccc(-c3ccc(-c4c[nH]c([C@@H](NC(=O)C(=O)N(CC(F)(F)F)C(C)C)C(C)C)n4)cc3)cc2)c[nH]1 [Compound W-65]	>100 fold
CC(C)N(CC(F)(F)F)C(=O)C(=O)N[C@H](c1nc(-c2ccc(-c3ccc(-c4c[nH]c([C@@H](NC(=O)C(=O)N(CC(F)(F)F)C(C)C)C(C)(C)C)n4)cc3)cc2)c[nH]1)C(C)(C)C [Compound W-66]	>100 fold
CC(C)(C)OC(=O)N1[C@@H]2CC2C[C@H]1C(=O)N[C@H](c1nc(-c2ccc(-c3ccc(-c4c[nH]c([C@@H](NC(=O)[C@@H]5CC6C[C@H]6N5C(=O)OC(C)(C)C)C(C)(C)C)n4)cc3)cc2)c[nH]1)C(C)(C)C (some centres unmarked) [Compound W-67]	>100 fold
C[C@H]1C[C@@H](C(=O)N[C@H](c2nc(-c3ccc(-c4ccc(-c5c[nH]c([C@@H](NC(=O)[C@@H]6C[C@H](C)CN6C(=O)OC(C)(C)C)C(C)(C)C)n5)cc4)cc3)c[nH]2)C(C)(C)C)N(C(=O)OC(C)(C)C)C1 [Compound W-68]	>100 fold
C[C@H]1CC[C@@H](C(=O)N[C@H](c2nc(-c3ccc(-c4ccc(-c5c[nH]c([C@@H](NC(=O)[C@@H]6CC[C@H](C)N6C(=O)OC(C)(C)C)C(C)(C)C)n5)cc4)cc3)c[nH]2)C(C)(C)C)N1C(=O)OC(C)(C)C [Compound W-69]	>100 fold
C[C@H]1CC[C@@H](C(=O)N[C@H](c2nc(-c3ccc(-c4ccc(-c5c[nH]c([C@@H](NC(=O)[C@@H]6CC[C@H](C)N6C(=O)OC(C)(C)C)C6(C)CC6)n5)cc4)cc3)c[nH]2)C2(C)CC2)N1C(=O)OC(C)(C)C [Compound W-72]	>100 fold
CC(C)[C@H](NC(=O)[C@@H]1C2C[C@@H]2CN1C(=O)OC(C)(C)C)c1nc(-c2ccc(-c3ccc(-c4c[nH]c([C@@H](NC(=O)[C@@H]5C6C[C@@H]6CN5C(=O)OC(C)(C)C)C(C)C)n4)cc3)cc2)c[nH]1 (some centres unmarked) [Compound W-74]	>100 fold
CC(C)(C)OC(=O)N1C[C@H]2CC2[C@H]1C(=O)N[C@H](c1nc(-c2ccc(-c3ccc(-c4c[nH]c([C@@H](NC(=O)[C@@H]5C6C[C@@H]6CN5C(=O)OC(C)(C)C)C5(C)CC5)n4)cc3)cc2)c[nH]1)C1(C)CC1 (some centres unmarked) [Compound W-75]	>100 fold
CC(C)(C)OC(=O)N1C[C@@H](F)C[C@H]1C(=O)N[C@H](c1nc(-c2ccc(-c3ccc(-c4c[nH]c([C@@H](NC(=O)[C@@H]5C[C@H](F)CN5C(=O)OC(C)(C)C)C(C)(C)C)n4)cc3)cc2)c[nH]1)C(C)(C)C [Compound W-83]	>100 fold
CC(C)(C)OC(=O)N1CCC[C@H]1C(=O)N[C@H](c1nc(-c2ccc(-c3ccc(-c4c[nH]c([C@@H](NC(=O)[C@@H]5CCCN5C(=O)OC(C)(C)C)C(C)(C)C)n4)cc3)cc2)c[nH]1)C(C)(C)C [Compound W-86]	>100 fold
CC(C)(C)OC(=O)N1CCC[C@@H]1C(=O)N[C@H](c1nc(-c2ccc(-c3ccc(-c4c[nH]c([C@@H](NC(=O)[C@H]5CCCN5C(=O)OC(C)(C)C)C(C)(C)C)n4)cc3)cc2)c[nH]1)C(C)(C)C [Compound W-87]	>100 fold

Structure (SMILES)	Fold-Synergistic 1a (Q30E)
CC(C)(C)OC(=O)N1CC(F)(F)C[C@H]1C(=O)N[C@H](c1nc(-c2ccc(-c3ccc(-c4c[nH]c([C@@H](NC(=O)[C@@H]5CC(F)(F)CN5C(=O)OC(C)(C)C)C(C)(C)C)n4)cc3)cc2)c[nH]1)C(C)(C)C [Compound W-88]	>100 fold
C=C1C[C@@H](C(=O)N[C@H](c2nc(-c3ccc(-c4ccc(-c5c[nH]c([C@@H](NC(=O)[C@@H]6CC(=C)CN6C(=O)OC(C)(C)C)C(C)C)n5)cc4)cc3)c[nH]2)C(C)C)N(C(=O)OC(C)(C)C)C1 [Compound W-89]	>100 fold
C=C1C[C@@H](C(=O)N[C@H](c2nc(-c3ccc(-c4ccc(-c5c[nH]c([C@@H](NC(=O)[C@@H]6CC(=C)CN6C(=O)OC(C)(C)C)C(C)(C)C)n5)cc4)cc3)c[nH]2)C(C)(C)C)N(C(=O)OC(C)(C)C)C1 [Compound W-91]	>100 fold
CC(C)(C)OC(=O)N1CC2(CC2)C[C@H]1C(=O)N[C@H](c1nc(-c2ccc(-c3ccc(-c4c[nH]c([C@@H](NC(=O)[C@@H]5CC6(CC6)CN5C(=O)OC(C)(C)C)C(C)(C)C)n4)cc3)cc2)c[nH]1)C(C)(C)C [Compound W-94]	>100 fold
CC(C)(C)OC(=O)N1C[C@H](O)C[C@H]1C(=O)N[C@H](c1nc(-c2ccc(-c3ccc(-c4c[nH]c([C@@H](NC(=O)[C@@H]5C[C@@H](O)CN5C(=O)OC(C)(C)C)C5(C)CC5)n4)cc3)cc2)c[nH]1)C1(C)CC1 [Compound W-95]	>100 fold
CC(C)(C)OC(=O)N1C[C@H](O)C[C@H]1C(=O)N[C@H](c1nc(-c2ccc(-c3ccc(-c4c[nH]c([C@@H](NC(=O)[C@@H]5C[C@@H](O)CN5C(=O)OC(C)(C)C)C(C)(C)C)n4)cc3)cc2)c[nH]1)C(C)(C)C [Compound W-96]	>100 fold
CC(C)[C@H](NC(=O)[C@@H]1C[C@@H](O)CN1C(=O)OC(C)(C)C)c1nc(-c2ccc(-c3ccc(-c4c[nH]c([C@@H](NC(=O)[C@@H]5C[C@@H](O)CN5C(=O)OC(C)(C)C)C(C)C)n4)cc3)cc2)c[nH]1 [Compound W-97]	>100 fold
CC(C)(C)OC(=O)N1C[C@@H](O)C[C@H]1C(=O)N[C@H](c1nc(-c2ccc(-c3ccc(-c4c[nH]c([C@@H](NC(=O)[C@@H]5C[C@H](O)CN5C(=O)OC(C)(C)C)C(C)(C)C)n4)cc3)cc2)c[nH]1)C(C)(C)C [Compound W-98]	>100 fold
CC(C)(C)OC(=O)N1C[C@@H](O)C[C@H]1C(=O)N[C@H](c1nc(-c2ccc(-c3ccc(-c4c[nH]c([C@@H](NC(=O)[C@@H]5C[C@H](O)CN5C(=O)OC(C)(C)C)C5(C)CC5)n4)cc3)cc2)c[nH]1)C1(C)CC1 [Compound W-99]	>100 fold
CC(C)[C@H](NC(=O)[C@@H]1C[C@H](O)CN1C(=O)OC(C)(C)C)c1nc(-c2ccc(-c3ccc(-c4c[nH]c([C@@H](NC(=O)[C@@H]5C[C@H](O)CN5C(=O)OC(C)(C)C)C(C)C)n4)cc3)cc2)c[nH]1 [Compound W-100]	>100 fold
CC(C)(C)[C@H](NC(=O)[C@@H]1C[C@@H](F)CN1C(=O)C1CC1)c1nc(-c2ccc(-c3ccc(-c4c[nH]c([C@@H](NC(=O)[C@@H]5C[C@@H](F)CN5C(=O)C5CC5)C(C)(C)C)n4)cc3)cc2)c[nH]1 [Compound W-104]	>100 fold
CC(C)(C)C(=O)N1C[C@H](F)C[C@H]1C(=O)N[C@H](c1nc(-c2ccc(-c3ccc(-c4c[nH]c([C@@H](NC(=O)[C@@H]5C[C@@H](F)CN5C(=O)C(C)(C)C)C(C)(C)C)n4)cc3)cc2)c[nH]1)C(C)(C)C [Compound W-105]	>100 fold
CC(C)OC(=O)N1C[C@H](F)C[C@H]1C(=O)N[C@H](c1nc(-c2ccc(-c3ccc(-c4c[nH]c([C@@H](NC(=O)[C@@H]5C[C@@H](F)CN5C(=O)OC(C)C)C(C)(C)C)n4)cc3)cc2)c[nH]1)C(C)(C)C [Compound W-107]	>100 fold
CC(C)(C)[C@H](NC(=O)[C@@H]1C[C@@H](F)CN1C(=O)OCCF)c1nc(-c2ccc(-c3ccc(-c4c[nH]c([C@@H](NC(=O)[C@@H]5C[C@@H](F)CN5C(=O)OCCF)C(C)(C)C)n4)cc3)cc2)c[nH]1 [Compound W-108]	>100 fold
COC(=O)N1C[C@H](F)C[C@H]1C(=O)N[C@H](c1nc(-c2ccc(-c3ccc(-c4c[nH]c([C@@H](NC(=O)[C@@H]5C[C@@H](F)CN5C(=O)OC)C(C)(C)C)n4)cc3)cc2)c[nH]1)C(C)(C)C [Compound W-109]	>100 fold
COCCOC(=O)N1C[C@H](F)C[C@H]1C(=O)N[C@H](c1nc(-c2ccc(-c3ccc(-c4c[nH]c([C@@H](NC(=O)[C@@H]5C[C@@H](F)CN5C(=O)OCCOC)C(C)(C)C)n4)cc3)cc2)c[nH]1)C(C)(C)C [Compound W-110]	>100 fold
CO[C@H]1C[C@@H](C(=O)N[C@H](c2nc(-c3ccc(-c4ccc(-c5c[nH]c([C@@H](NC(=O)[C@@H]6C[C@H](OC)CN6C(=O)OC(C)(C)C)C(C)(C)C)n5)cc4)cc3)c[nH]2)C(C)(C)C)N(C(=O)OC(C)(C)C)C1 [Compound W-115]	>100 fold

From US9326973B2, “Hepatitis C virus inhibitors” (priority 2012, dated 2016)
